Test results published in PMC10201506 (Signal Transduction and Targeted Therapy, 2023).

Tests used:
[1] = system: SARS-CoV-2 Delta variant; assay: microbe, parasite or virus in culture; type: cell-based; settings: Severe acute respiratory syndrome coronavirus 2, Vero C1008, 24 h, read-out: EC50 Delta variant replication
[2] = system: SARS-CoV-2 Omicron BA.1 variant; assay: microbe, parasite or virus in culture; type: cell-based; settings: Severe acute respiratory syndrome coronavirus 2, Vero C1008, 24 h, read-out: EC50 Omicron BA.1 variant replication
[3] = system: SARS-CoV-2 delta variant; parameters: species or system K18-hACE2 mice; settings: mouse, in vivo

O=C(c1cc(=O)[nH]c2ccccc12)N1CCN(c2ccc(Cl)c(Cl)c2)CC1CN1CCOCC1 (centres unmarked) [JZD-07, 4-(4-(3,4-Dichlorophenyl)-2-(morpholinomethyl)piperazine-1-carbonyl)quinolin-2(1H)-one]
EC50 [1]: 7.24 µM
EC50 [2]: 6.03 µM
immunohistochemistry staining of viral nucleocapsid protein in lungs [3]: suppressed viral titer in mice lungs
reduction of viral copy loads of the lung vs vehicle [3]: ~1.0 log
reduction of viral titers of the lung vs vehicle [3]: 2.0 log
